# Laboratory results from US11779602B2, “Methods of use for CAR T cells” (ENDOCYTE, INC., priority 2018, dated 2023).
# Experiments:
# [1] = test system: FR+ tumor cell targets (MDA-MB-231, THP1-FRβ, HOS-FRα); test: CAR-T cell activation markers (CD69, CD137, PD1) in co-culture with EC17-preloaded targets; format: cell-based, human; details: E/T 1:1, 24 hours
# Protocol: To study CAR-T cell activation in the presence of FR+ tumor cell targets (FIGS. 53A-D), co-culture experiments were initially carried out with MDA-MB-231, THP1-FRβ and HOS-FRα. […] After 24 hours of co-culture, the surface expression of T cell activation markers CD69, CD137 (4-1BB), and PD1 were analyzed by flow cytometry. For T cell exhaustion studies (FIGS. 54A-C), FR+ (KB, MDA-MB-231, HOS-FRα^fLuc, THP1-FRβ) and FR-negative (HOS-143b^fLuc, THP1-FG12) tumor cell lines were used as targets. Here, target cells were incubated on day 0 without or with 0.1 and 10 nM of EC17 for 30 min at 37° C. and the status of EC17 “pre-loading” was assessed by counterstaining cell-surface EC17 with an anti-FITC antibody (FIG. 61A). Three days later, the surface expression of PD1, LAG3, and TIM3 inhibitor receptors on co-cultured CAR-T cells were analyzed and higher frequencies of double- and triple-positive cells were considered approaching an exhausted phenotype.
# To examine antigen-dependent CAR-T cell activation, MDA-MB-231, THP1-FRβ and HOS-FRα cells were preloaded with 100 nM EC17 over 30 min. […] After 24 hours of co-culture, we measured the surface expression of T cell activation markers CD69, CD137 (4-1BB) and PD1 (FIGS. 53A-D). […] Three days later, co-cultured CAR-T cells were measured for upregulation and co-expression of T cell activation/exhaustion markers PD1, LAGS and TIM3. […]
# [2] = test system: target cells expressing surface folate receptor (OV90, SKOV3, IGROV1, HOS-FRα, MDA-MB-231); test: Two day co-culture target cell kill assay (Annexin V); format: cell-based, human; details: 100 nM EC17 30 min pre-treatment, E:T 1:1, two days
# Protocol: On day −1, 100,000 target cells were plated in 2 ml of growth media per well of a 12-well tissue culture plate to allow target cells to adhere and recover. On day 0, wells which received EC17 bridge molecule were treated with EC17 at 100 nM for 30 min in the tissue culture incubator. Afterwards, all media was washed off and replaced with fresh growth media free of folate and EC17. During the EC17 incubation, T cells were harvested, counted and after EC17 treatment was completed, 100,000 E2 CAR T cells were directly added onto each well of target cells in a total of 3 ml of growth media at a ratio of 1:1 (E:T) and incubated for both 1 and 2 days under standard tissue culture humidified conditions of 37° C. at 5% CO2. One day co-culture conditions were used to assay E2 CAR T cell activation by target cells and two-day incubation was used to assay target cell death. […]
# To confirm that E2 CAR T cell activation also translates to successful killing of the target cells we performed a two-day co-culture assay then looked at target cell (EGFR-CD3-) events via flow cytometry and determined the percentage of target cell staining with the apoptotic surface marker, Annexin V stain. […]
structure (smiles),measurement,setting,value
"NC1=NC2N=CC(CNc3ccc(C(=O)N[C@@H](CCC(=O)NCCNC(=S)Nc4ccc(-c5c6ccc(=O)cc-6oc6cc(O)ccc56)c(C(=O)O)c4)C(=O)O)cc3)=NC2C(=O)N1 (stereo partly drawn) [EC17, FA-(γ)-ethylenediamine-FITC]","CAR-T cell activation (CD69, CD137, PD1)",[1]; MDA-MB-231 and HOS-FRα preloaded with 100 nM EC17 30 min,strong activators
same,"CAR-T cell activation (CD69, CD137, PD1)",[1]; THP1-FRβ preloaded with 100 nM EC17 30 min,"did trigger CAR-T cell activation, but at lower levels"
same,requirement of EC17 binding for target cell kill,[2],required for cell kill
